Measurements published in patent publication US20220047527A1, “FOOD-AND-DRINK COMPOSITION CONTAINING ASTAXANTHIN” (AstaReal Co., Ltd., priority 2016, published 2022).

Columns and labels:
[1] = as high as that of vitamin E; cited from earlier work
[2] = Adverse events in Study 1; assay type: in vivo, human
[3] = system: human having a sense of fatigue; assay: VAS (Visual Analog Scale) analysis before/after mental and physical loads; assay type: in vivo; conditions: for VAS, Clear-headedness (FIG. 5) / VAS, Concentration (FIG. 5) / VAS, Feeling of body heaviness (FIG. 5) / VAS, Frustration (FIG. 5) / VAS, Mood (FIG. 5) / VAS, Motivation (FIG. 5): vs control group
Description: (§1) A placebo-controlled, randomized, double-blind, parallel-group study was employed for ingestion of the test food, and two groups, namely, the control group (placebo group) with ingestion of a capsule not containing astaxanthin and the astaxanthin group with ingestion of a capsule containing 6 mg of astaxanthin (120 mg of Haematococcus algae extract and 10 mg of tocotrienol mixture derived from palm oil) were compared through a double-blind method. For ingestion of the test food, the subjects were instructed to ingest one capsule twice daily (total 12 mg of astaxanthin (240 mg of Haematococcus algae extract and 20 mg of tocotrienol mixture derived from palm oil) in two capsules per day), one after breakfast (or after the first meal of the day if no breakfast was taken) and the other after dinner, with water or lukewarm water within 30 min of eating. The overall duration for ingestion was 8 weeks (12 weeks only for the OSA sleep analysis). The subjects were also instructed to record their test food ingestion, drinking, and exercise in a diary every day, from the first day to the last day of ingestion.
The assessment to the subjects consisted of seven questions: “Sense of Fatigue (“sense of fatigue caused by mental load” or “sense of fatigue caused by mental load and physical load”) (best sensation with no fatigue—worst sensation of being too tired to do anything)”, “Clear-headedness (very clear—very dull)”, “Concentration (able to concentrate very easily—unable to concentrate at all)”, “Motivation (highly motivated—totally unmotivated)”, “Mood (very happy—as depressed as I can be)”, “Frustration (not frustrated at all—very frustrated)”, and “Feeling of body heaviness (feeling my body is very light—feeling my body is very heavy)”. For each question, the subjects were instructed to draw a vertical line by intuition on a 100 mm horizontal line to indicate their condition at the time, with the far left end indicating the best condition and the far right end indicating the worst condition. A VAS score was derived by measuring with a ruler the distance from the far left end to the intersection with the vertical line. VAS analysis was performed five times in total in one day: in the morning of the day of assessment (before load application), after application of a physical load and a mental load, at the end of the assessment visit (after a rest period), after mental load application (calculation load; Uchida-Kraepelin test), and after a rest period after mental load application. To determine transient changes in fatigue, the load-induced change was calculated by subtracting the pre-load value from the values after mental load application, after a rest period after mental load application, after application of both loads, and after a rest period therefor. In addition, to determine the effect of test food ingestion alone, ingestion-induced change was calculated by subtracting the pre-load (pre-ingestion) value at week 0 from the pre-load value after 4-week ingestion and after 8-week ingestion.

[4] = system: human having a sense of fatigue; assay: POMS (Profile of Mood States) analysis; assay type: in vivo
Description: as §1
Using the self-administered POMS 2 in Japanese, adult short version (Kanekoshobo, Tokyo, Japan), the subjects answered 35 questions by rating their “current mood” on a 5-point scale (0=not at all; 1=a little; 2=moderately; 3=quite a bit; 4=extremely). Responses to each question were scored according to the POMS scoring system for the seven scales: anger-hostility, confusion-bewilderment, depression-dejection, fatigue-inertia, tension-anxiety, vigor-activity, and friendliness, and the raw scores were converted into TMD scores with a conversion table. The POMS was administered 3 times in total in one day: in the morning of the day of assessment (before load application), after mental load application (calculation load; Uchida-Kraepelin test), and at the end of the day of assessment (after the rest period). To determine transient changes in fatigue, the load-induced change was calculated by subtracting the pre-load value from the values after mental load application and after a rest period therefor. In addition, to determine the effect of test food ingestion alone, ingestion-induced change was calculated by subtracting the pre-load (pre-ingestion) value at week 0 from the pre-load value after 8-week ingestion.

[5] = throughout the study period, 12 mg/day
[6] = after application of both loads, after 4-week ingestion, vs control group (FIG. 4)
[7] = after application of both loads, after 8-week ingestion, vs control group (FIG. 4)
[8] = after application of both loads
[9] = after the rest period (after both loads), after 4-week ingestion, vs control group (FIG. 4)
[10] = after the rest period (after both loads), after 8-week ingestion, vs control group (FIG. 4)
[11] = after the rest period (after both loads)

CC1=C(/C=C/C(C)=C/C=C/C(C)=C/C=C/C=C(C)/C=C/C=C(C)/C=C/C2=C(C)C(=O)C(O)CC2(C)C)C(C)(C)CC(O)C1=O (stereo not drawn) [astaxanthin, 3,3′-dihydroxy-β,β-carotene-4,4′-dione]
antioxidative effect relative to vitamin E [1]: 1000 times | adverse event ([2]; this study): no adverse event was found | adverse subjective symptoms [2, 5]: none of the subjects complained | medical examination by a physician [2, 5]: no remarkable abnormalities | VAS load-induced change, Clear-headedness [3, 6]: marginally significant improvement and enhancement | VAS load-induced change, Mood [3, 6]: significant improvement | VAS load-induced change, Clear-headedness [3, 7]: marginally significant improvement and enhancement | VAS load-induced change, Concentration [3, 7]: marginally significant improvement and enhancement | VAS load-induced change, Feeling of body heaviness [3, 7]: significant improvement | VAS load-induced change, Mood [3, 7]: marginally significant improvement | VAS load-induced change, Motivation [3, 7]: marginally significant enhancement | VAS, Clear-headedness (FIG. 5) [3, 8]: marginally significant improvement | VAS, Concentration (FIG. 5) [3, 8]: marginally significant improvement | VAS, Feeling of body heaviness (FIG. 5) [3, 8]: significant improvement | VAS, Frustration (FIG. 5) [3, 8]: resolution of frustration | VAS, Mood (FIG. 5) [3, 8]: marginally significant improvement | VAS, Motivation (FIG. 5) [3, 8]: marginally significant improvement | VAS load-induced change, Frustration ([3]; after mental load application, after 8-week ingestion, vs control group (FIG. 4)): significant improvement | VAS, Clear-headedness (FIG. 5) ([3]; after mental load application): improvement | VAS, Concentration (FIG. 5) ([3]; after mental load application): improvement | VAS, Feeling of body heaviness (FIG. 5) ([3]; after mental load application): reduction of feeling of body heaviness | VAS, Frustration (FIG. 5) ([3]; after mental load application): significant improvement | VAS, Mood (FIG. 5) ([3]; after mental load application): improvement | VAS, Motivation (FIG. 5) ([3]; after mental load application): improvement | VAS load-induced change, Clear-headedness [3, 9]: marginally significant improvement and enhancement | VAS load-induced change, Mood [3, 9]: marginally significant improvement | VAS load-induced change, Clear-headedness [3, 10]: marginally significant improvement and enhancement | VAS load-induced change, Concentration [3, 10]: marginally significant improvement and enhancement | VAS load-induced change, Feeling of body heaviness [3, 10]: marginally significant improvement | VAS load-induced change, Frustration [3, 10]: significant improvement | VAS, Clear-headedness (FIG. 5) [3, 11]: marginally significant improvement | VAS, Concentration (FIG. 5) [3, 11]: marginally significant improvement | VAS, Feeling of body heaviness (FIG. 5) [3, 11]: marginally significant improvement | VAS, Frustration (FIG. 5) [3, 11]: significant improvement | VAS, Mood (FIG. 5) [3, 11]: improvement | VAS, Motivation (FIG. 5) [3, 11]: improvement | POMS ingestion-induced change, Friendliness (F) ([4]; after 8-week ingestion minus pre-ingestion, vs control group (FIG. 6)): significant high value | POMS load-induced change, Vigor-activity (VA) ([4]; after the rest period, after 8-week ingestion, vs control group (FIG. 6)): marginally significant high value | POMS improvement in Vigor-activity (VA) compared with quercetin/isoquercetin ([4]; vs literature: 250 mg quercetin and 100 mg isoquercetin for 42 to 54 days): larger | POMS improvement in Vigor-activity (VA), AH, FI and CB compared with bonito stock ([4]; vs literature: bonito stock morning and evening over two weeks): larger
